In ChEMBL document CHEMBL2385075, “Anti-inflammatory and antinociceptive activity of epiisopiloturine, an imidazole alkaloid isolated from Pilocarpus microphyllus” (J Nat Prod, 2013):
Active and inactive are the calls of the source. No cut-off for these calls is given here.

Experiments:
Mus musculus [1] = experiment: Neurotoxicity in Swiss mouse assessed as motor impairment at 5 mg/kg, ip administered 60 mins measured for 1 min by rotarod test; format: toxicity, organism-based; parameters: dose 5 mg/kg, route intraperitoneal; conditions: in vivo
Mus musculus [2] = experiment: Antiinflammatory activity in Swiss mouse assessed as inhibition of bradykinin-induced paw edema at 1 mg/kg, ip administered 30 mins prior to bradykinin challenge measured after 60 mins in presence of captopril relative to untreated control; format: functional; conditions: route intraperitoneal
Mus musculus [3] = experiment: Antiinflammatory activity in Swiss mouse assessed as inhibition of carrageenan-induced total leukocytes migration into peritoneal cavity at 1 mg/kg, ip administered 30 mins prior to carrageenan challenge measured after 4 hrs relative to carrageenan-treated control; format: functional; conditions: route intraperitoneal
Mus musculus [4] = experiment: Antiinflammatory activity in Swiss mouse assessed as inhibition of carrageenan-induced paw edema at 1 mg/kg, ip measured at 4 hrs by plethysmometric analysis relative to untreated control; format: functional; conditions: route intraperitoneal
Mus musculus [5] = experiment: Antiinflammatory activity in Swiss mouse assessed as reduction of carrageenan-induced IL-1beta level into peritoneal fluid at 1 mg/kg, ip administered 1 hr prior to carrageenan challenge measured after 4 hrs by sandwich ELISA; format: functional, organism-based; parameters: dose 1 mg/kg
Mus musculus [6] = experiment: Antiinflammatory activity in Swiss mouse assessed as inhibition of carrageenan-induced paw edema at 0.1 mg/kg, ip measured at 2 hrs by plethysmometric analysis relative to untreated control; format: functional; conditions: route intraperitoneal
Mus musculus [7] = experiment: Antiinflammatory activity in Swiss mouse assessed as inhibition of dextran sulfate-induced paw edema at 1 mg/kg, ip administered 30 mins prior to dextran sulfate challenge measured after 4 hrs relative to untreated control; format: functional; conditions: route intraperitoneal
Mus musculus [8] = experiment: Antinociceptive activity in Swiss mouse assessed as inhibition of formalin-induced paw licking at 1 mg/kg, ip administered 30 mins prior to formalin challenge measured during neurogenic phase for 1 to 5 mins; format: functional; conditions: route intraperitoneal
Mus musculus [9] = experiment: Antiinflammatory activity in Swiss mouse assessed as inhibition of carrageenan-induced paw edema at 1 mg/kg, ip measured at 1 hr by plethysmometric analysis relative to untreated control; format: functional; conditions: route intraperitoneal
Mus musculus [10] = experiment: Neurotoxicity in Swiss mouse assessed as motor impairment at 1 to 10 mg/kg, ip administered 60 mins measured for 1 min by rotarod test; format: toxicity, organism-based; parameters: dose 1-10 mg/kg, route intraperitoneal; conditions: in vivo
Mus musculus [11] = experiment: Antinociceptive activity in Swiss mouse assessed as inhibition of acetic acid-induced abdominal writhing response at 1 mg/kg, ip administered 30 mins prior to acetic acid challenge measured for 10 to 20 mins; format: functional; conditions: Abdomen, route intraperitoneal
Mus musculus [12] = experiment: Antinociceptive activity in Swiss mouse assessed as increase in latency time at 1 mg/kg, ip administered 30 mins prior to testing measured after 30 to 120 mins by hot plate test; format: functional, organism-based; parameters: dose 1 mg/kg
Mus musculus [13] = experiment: Antinociceptive activity in Swiss mouse assessed as inhibition of formalin-induced paw licking at 1 mg/kg, ip administered 30 mins prior to formalin challenge measured during neurogenic phase for 1 to 5 mins in presence of opioid receptor antagonist naloxone; format: functional, organism-based; parameters: dose 1 mg/kg
Mus musculus [14] = experiment: Antiinflammatory activity in Swiss mouse assessed as reduction of carrageenan-induced TNFalpha level into peritoneal fluid at 1 mg/kg, ip administered 1 hr prior to carrageenan challenge measured after 4 hrs by sandwich ELISA; format: functional, organism-based; parameters: dose 1 mg/kg
Mus musculus [15] = experiment: Antiinflammatory activity in Swiss mouse assessed as inhibition of carrageenan-induced paw edema at 0.1 mg/kg, ip measured at 1 hr by plethysmometric analysis relative to untreated control; format: functional; conditions: route intraperitoneal
Mus musculus [16] = experiment: Antiinflammatory activity in Swiss mouse assessed as reduction of carrageenan-induced paw myeloperoxidase activity measured per mg of tissue at 1 mg/kg, ip administered 30 mins prior to carrageenan challenge measured after 4 hrs (reference value: 10.9 +/- 1.2 U); format: functional; conditions: route intraperitoneal
Mus musculus [17] = experiment: Antiinflammatory activity in Swiss mouse assessed as inhibition of carrageenan-induced paw edema at 0.3 mg/kg, ip measured at 2 hrs by plethysmometric analysis relative to untreated control; format: functional; conditions: route intraperitoneal
Mus musculus [18] = experiment: Antiinflammatory activity in Swiss mouse assessed as inhibition of carrageenan-induced paw edema at 1 mg/kg, ip measured at 3 hrs by plethysmometric analysis relative to untreated control; format: functional; conditions: route intraperitoneal
Mus musculus [19] = experiment: Antinociceptive activity in Swiss mouse assessed as inhibition of formalin-induced paw licking at 1 mg/kg, ip administered 30 mins prior to formalin challenge measured during inflammatory phase for 20 to 25 mins; format: functional; conditions: route intraperitoneal
Mus musculus [20] = experiment: Antiinflammatory activity in Swiss mouse assessed as inhibition of carrageenan-induced paw edema at 0.1 mg/kg, ip measured at 4 hrs by plethysmometric analysis relative to untreated control; format: functional; conditions: route intraperitoneal
Mus musculus [21] = experiment: Antiinflammatory activity in Swiss mouse assessed as inhibition of carrageenan-induced paw edema at 0.3 mg/kg, ip measured at 1 hr by plethysmometric analysis relative to untreated control; format: functional; conditions: route intraperitoneal
Mus musculus [22] = experiment: Antiinflammatory activity in Swiss mouse assessed as inhibition of carrageenan-induced paw edema at 1 mg/kg, ip measured at 2 hrs by plethysmometric analysis relative to untreated control; format: functional; conditions: route intraperitoneal
Mus musculus [23] = experiment: Antiinflammatory activity in Swiss mouse assessed as inhibition of carrageenan-induced paw edema at 0.3 mg/kg, ip measured at 3 hrs by plethysmometric analysis relative to untreated control; format: functional; conditions: route intraperitoneal
Mus musculus [24] = experiment: Antiinflammatory activity in Swiss mouse assessed as inhibition of carrageenan-induced paw edema at 0.1 mg/kg, ip measured at 3 hrs by plethysmometric analysis relative to untreated control; format: functional; conditions: route intraperitoneal
Mus musculus [25] = experiment: Antiinflammatory activity in Swiss mouse assessed as inhibition of serotonin-induced paw edema at 1 mg/kg, ip administered 30 mins prior to serotonin challenge measured after 4 hrs relative to untreated control; format: functional; conditions: route intraperitoneal
Mus musculus [26] = experiment: Antiinflammatory activity in Swiss mouse assessed as inhibition of carrageenan-induced paw edema at 0.3 mg/kg, ip measured at 4 hrs by plethysmometric analysis relative to untreated control; format: functional; conditions: route intraperitoneal
Mus musculus [27] = experiment: Antiinflammatory activity in Swiss mouse assessed as inhibition of carrageenan-induced neutrophil migration into peritoneal cavity at 1 mg/kg, ip administered 30 mins prior to carrageenan challenge measured after 4 hrs relative to carrageenan-treated control; format: functional; conditions: route intraperitoneal
Mus musculus [28] = experiment: Antiinflammatory activity in Swiss mouse assessed as inhibition of histamine-induced paw edema at 1 mg/kg, ip administered 30 mins prior to histamine challenge measured after 60 mins relative to untreated control; format: functional, organism-based; parameters: dose 1 mg/kg
Mus musculus [29] = experiment: Antiinflammatory activity in Swiss mouse assessed as inhibition of carrageenan-induced total leukocytes migration into peritoneal cavity at 10 mg/kg, ip administered 30 mins prior to carrageenan challenge measured after 4 hrs relative to carrageenan-treated control; format: functional; conditions: route intraperitoneal
Mus musculus [30] = experiment: Antiinflammatory activity in Swiss mouse assessed as inhibition of carrageenan-induced paw edema at 10 mg/kg, ip measured at 3 hrs by plethysmometric analysis relative to untreated control; format: functional; conditions: route intraperitoneal
Mus musculus [31] = experiment: Antiinflammatory activity in Swiss mouse assessed as inhibition of dextran sulfate-induced paw edema at 10 mg/kg, ip administered 30 mins prior to dextran sulfate challenge measured after 4 hrs relative to untreated control; format: functional, organism-based; parameters: dose 10 mg/kg
Mus musculus [32] = experiment: Antiinflammatory activity in Swiss mouse assessed as reduction of carrageenan-induced paw myeloperoxidase activity measured per mg of tissue at 10 mg/kg, ip administered 30 mins prior to carrageenan challenge measured after 4 hrs (reference value: 10.9 +/- 1.2 U); format: functional; conditions: route intraperitoneal
Mus musculus [33] = experiment: Antiinflammatory activity in Swiss mouse assessed as inhibition of carrageenan-induced paw edema at 10 mg/kg, ip measured at 4 hrs by plethysmometric analysis relative to untreated control; format: functional; conditions: route intraperitoneal
Mus musculus [34] = experiment: Antiinflammatory activity in Swiss mouse assessed as inhibition of bradykinin-induced paw edema at 10 mg/kg, ip administered 30 mins prior to bradykinin challenge measured after 60 mins in presence of captopril relative to untreated control; format: functional, organism-based; parameters: dose 10 mg/kg
Mus musculus [35] = experiment: Antiinflammatory activity in Swiss mouse assessed as inhibition of serotonin-induced paw edema at 10 mg/kg, ip administered 30 mins prior to serotonin challenge measured after 4 hrs relative to untreated control; format: functional, organism-based; parameters: dose 10 mg/kg
Mus musculus [36] = experiment: Antiinflammatory activity in Swiss mouse assessed as inhibition of carrageenan-induced neutrophil migration into peritoneal cavity at 10 mg/kg, ip administered 30 mins prior to carrageenan challenge measured after 4 hrs relative to carrageenan-treated control; format: functional; conditions: route intraperitoneal
Mus musculus [37] = experiment: Antiinflammatory activity in Swiss mouse assessed as inhibition of carrageenan-induced paw edema at 10 mg/kg, ip measured at 2 hrs by plethysmometric analysis relative to untreated control; format: functional; conditions: route intraperitoneal
Mus musculus [38] = experiment: Antiinflammatory activity in Swiss mouse assessed as inhibition of carrageenan-induced paw edema at 10 mg/kg, ip measured at 1 hr by plethysmometric analysis relative to untreated control; format: functional; conditions: route intraperitoneal
Mus musculus [39] = experiment: Antiinflammatory activity in Swiss mouse assessed as inhibition of histamine-induced paw edema at 10 mg/kg, ip administered 30 mins prior to histamine challenge measured after 60 mins relative to untreated control; format: functional, organism-based; parameters: dose 10 mg/kg
Mus musculus [40] = species: Mus musculus; experiment: animal or person; conditions: Swiss, Abdomen, ip, read-out: INH
Description: Antinociceptive activity in Swiss mouse assessed as inhibition of acetic acid-induced abdominal writhing response at 5 mg/kg, ip administered 30 mins prior to acetic acid challenge measured for 10 to 20 mins

Mus musculus [41] = species: Mus musculus; experiment: animal or person; conditions: Swiss, sc, read-out: INH
Description: Antinociceptive activity in Swiss mouse assessed as inhibition of formalin-induced paw licking at 5 mg/kg, sc administered 30 mins prior to formalin challenge measured during neurogenic phase for 1 to 5 mins

Mus musculus [42] = experiment: Antinociceptive activity in Swiss mouse assessed as increase in latency time at 5 mg/kg, sc administered 30 mins prior to testing measured after 30 to 120 mins by hot plate test; format: functional, organism-based; parameters: dose 5 mg/kg
Mus musculus [43] = species: Mus musculus; experiment: animal or person; conditions: Swiss, sc, read-out: INH; remark: listed apart in the source
Description: Antinociceptive activity in Swiss mouse assessed as inhibition of formalin-induced paw licking at 5 mg/kg, sc administered 30 mins prior to formalin challenge measured during inflammatory phase for 20 to 25 mins

With `CN1C(=O)CN=C(c2ccccc2)c2cc(Cl)ccc21` [DIAZEPAM] the Activity (Mus musculus [1]) was “Toxic”.
`Cn1cnc(C[C@H]2COC(=O)[C@@H]2[C@H](O)c2ccccc2)c1` [EPIISOPILOTURINE] showed an inhibition in vivo at 1 mg/kg (Mus musculus [2]) of 76.9%, an inhibition in vivo at 1 mg/kg (Mus musculus [3]) of 55.2% and an inhibition in vivo at 1 mg/kg (Mus musculus [4]) of 73%. The Activity (Mus musculus [5]) was “Active”, the inhibition in vivo at 0.1 mg/kg (Mus musculus [6]) was 46.8% and the inhibition in vivo at 1 mg/kg (Mus musculus [7]) was 54.1%. The inhibition in vivo at 1 mg/kg (Mus musculus [8]) was 58.2%, the inhibition in vivo at 1 mg/kg (Mus musculus [9]) was 65% and the Activity (Mus musculus [10]) was “Non-toxic”. For the same compound, the inhibition in vivo at 1 mg/kg (Mus musculus [11]) was 66.4%, the Activity (Mus musculus [12]) was “inactive” and the Activity (Mus musculus [13]) was “inactive”. For the same compound, the Activity (Mus musculus [14]) was “Active”, the inhibition in vivo at 0.1 mg/kg (Mus musculus [15]) was 36% and the Activity (Mus musculus [16]) was 3.8 U. For the same compound, the inhibition in vivo at 0.3 mg/kg (Mus musculus [17]) was 71.3%, the inhibition in vivo at 1 mg/kg (Mus musculus [18]) was 85% and the inhibition in vivo at 1 mg/kg (Mus musculus [19]) was 89.2%. It also gave an inhibition in vivo at 0.1 mg/kg (Mus musculus [20]) of 49.7%, an inhibition in vivo at 0.3 mg/kg (Mus musculus [21]) of 48% and an inhibition in vivo at 1 mg/kg (Mus musculus [22]) of 79.5%. For the same compound, the inhibition in vivo at 0.3 mg/kg (Mus musculus [23]) was 70%, the inhibition in vivo at 0.1 mg/kg (Mus musculus [24]) was 55% and the inhibition in vivo at 1 mg/kg (Mus musculus [25]) was 46.7%. The inhibition in vivo at 0.3 mg/kg (Mus musculus [26]) was 67.6%, the inhibition in vivo at 1 mg/kg (Mus musculus [27]) was 73.8% and the inhibition (Mus musculus [28]) was “inactive”.
With `COc1ccc2c(c1)c(CC(=O)O)c(C)n2C(=O)c1ccc(Cl)cc1` [INDOMETHACIN] the inhibition in vivo at 10 mg/kg (Mus musculus [29]) was 60.2%, the inhibition in vivo at 10 mg/kg (Mus musculus [30]) was 43.7% and the inhibition (Mus musculus [31]) was “Active”. For the same compound, the Activity (Mus musculus [32]) was 3.1 U, the inhibition in vivo at 10 mg/kg (Mus musculus [33]) was 37% and the inhibition (Mus musculus [34]) was “Active”. The inhibition (Mus musculus [35]) was “Active”, the inhibition in vivo at 10 mg/kg (Mus musculus [36]) was 79.6% and the inhibition in vivo at 10 mg/kg (Mus musculus [37]) was 50.9%. For the same compound, the inhibition in vivo at 10 mg/kg (Mus musculus [38]) was 55% and the inhibition (Mus musculus [39]) was “Active”.
With `CN1CC[C@]23c4c5ccc(O)c4O[C@H]2[C@@H](O)C=C[C@H]3[C@H]1C5` [MORPHINE] the inhibition in vivo at 5 mg/kg (Mus musculus [40]) was 98.3%, the inhibition in vivo at 5 mg/kg (Mus musculus [41]) was 94% and the Activity (Mus musculus [42]) was “Active”. For the same compound, the inhibition in vivo at 5 mg/kg (Mus musculus [43]) was 97.2%.
